Details: for mass density: Vibrating tube method; for vapor or sublimation pressure: Closed cell (Static) method

FC(F)=C(F)C(F)(F)F [hexafluoropropene]
Details	mass density [kg/m3]
355.27 K, 1594.4 kPa, Fluid (supercritical or subcritical phases)	103.05
355.27 K, 1615.6 kPa, Fluid (supercritical or subcritical phases)	104.91
355.27 K, 1637.4 kPa, Fluid (supercritical or subcritical phases)	106.88
355.27 K, 1658.5 kPa, Fluid (supercritical or subcritical phases)	108.66
355.27 K, 1679.5 kPa, Fluid (supercritical or subcritical phases)	110.49
355.27 K, 1700.6 kPa, Fluid (supercritical or subcritical phases)	112.4
355.27 K, 1722 kPa, Fluid (supercritical or subcritical phases)	114.41
355.27 K, 1742.9 kPa, Fluid (supercritical or subcritical phases)	116.28
355.27 K, 1765.2 kPa, Fluid (supercritical or subcritical phases)	118.41
355.27 K, 1787.1 kPa, Fluid (supercritical or subcritical phases)	120.47
355.27 K, 1808.3 kPa, Fluid (supercritical or subcritical phases)	122.49
355.27 K, 1829.9 kPa, Fluid (supercritical or subcritical phases)	124.54
355.27 K, 1850.6 kPa, Fluid (supercritical or subcritical phases)	126.59
355.27 K, 1872.5 kPa, Fluid (supercritical or subcritical phases)	128.81
355.27 K, 1894.5 kPa, Fluid (supercritical or subcritical phases)	131.08
355.27 K, 1916.5 kPa, Fluid (supercritical or subcritical phases)	133.35
355.27 K, 1938.7 kPa, Fluid (supercritical or subcritical phases)	135.65
355.27 K, 1959.7 kPa, Fluid (supercritical or subcritical phases)	137.89
355.27 K, 1982.8 kPa, Fluid (supercritical or subcritical phases)	140.34
355.27 K, 2005.5 kPa, Fluid (supercritical or subcritical phases)	142.79
355.27 K, 2026.6 kPa, Fluid (supercritical or subcritical phases)	145.09
355.27 K, 2048.1 kPa, Fluid (supercritical or subcritical phases)	147.46
355.27 K, 2070.2 kPa, Fluid (supercritical or subcritical phases)	150.03
355.27 K, 2091.7 kPa, Fluid (supercritical or subcritical phases)	152.48
355.27 K, 2135.3 kPa, Fluid (supercritical or subcritical phases)	157.72
355.27 K, 2158.3 kPa, Fluid (supercritical or subcritical phases)	160.53
355.27 K, 2179.4 kPa, Fluid (supercritical or subcritical phases)	163.15
355.27 K, 2202.1 kPa, Fluid (supercritical or subcritical phases)	165.99
355.27 K, 2224 kPa, Fluid (supercritical or subcritical phases)	168.96
355.27 K, 2247.3 kPa, Fluid (supercritical or subcritical phases)	172.07
355.27 K, 2269.2 kPa, Fluid (supercritical or subcritical phases)	174.95
355.27 K, 2292 kPa, Fluid (supercritical or subcritical phases)	178.14
355.27 K, 2312.5 kPa, Fluid (supercritical or subcritical phases)	181.03
355.27 K, 2334.2 kPa, Fluid (supercritical or subcritical phases)	184.18
355.27 K, 2357.3 kPa, Fluid (supercritical or subcritical phases)	187.61
355.27 K, 2380.5 kPa, Fluid (supercritical or subcritical phases)	191.26
355.27 K, 2392.5 kPa, Fluid (supercritical or subcritical phases)	193.1
355.27 K, 2415.5 kPa, Fluid (supercritical or subcritical phases)	196.68
355.27 K, 2439.9 kPa, Fluid (supercritical or subcritical phases)	200.64
355.27 K, 2460.5 kPa, Fluid (supercritical or subcritical phases)	204.27
355.27 K, 2484.5 kPa, Fluid (supercritical or subcritical phases)	208.35
355.27 K, 2507 kPa, Fluid (supercritical or subcritical phases)	212.34
355.27 K, 2520.2 kPa, Fluid (supercritical or subcritical phases)	214.82
355.27 K, 2544.4 kPa, Fluid (supercritical or subcritical phases)	219.44
355.27 K, 2556.6 kPa, Fluid (supercritical or subcritical phases)	221.88
355.27 K, 2578.3 kPa, Fluid (supercritical or subcritical phases)	226.29
355.27 K, 2599.8 kPa, Fluid (supercritical or subcritical phases)	230.72
355.27 K, 2622.7 kPa, Fluid (supercritical or subcritical phases)	235.78
355.27 K, 2645.2 kPa, Fluid (supercritical or subcritical phases)	240.85
355.27 K, 2666.2 kPa, Fluid (supercritical or subcritical phases)	245.89
355.27 K, 2688.5 kPa, Fluid (supercritical or subcritical phases)	251.47
355.27 K, 2710.9 kPa, Fluid (supercritical or subcritical phases)	257.56
355.27 K, 2733.3 kPa, Fluid (supercritical or subcritical phases)	263.91
355.27 K, 2754.7 kPa, Fluid (supercritical or subcritical phases)	270.59
355.27 K, 2776.5 kPa, Fluid (supercritical or subcritical phases)	277.69
355.27 K, 2797.6 kPa, Fluid (supercritical or subcritical phases)	285.33
355.27 K, 2818.7 kPa, Fluid (supercritical or subcritical phases)	293.63
355.27 K, 2839.2 kPa, Fluid (supercritical or subcritical phases)	302.86
355.27 K, 2859.6 kPa, Fluid (supercritical or subcritical phases)	313.18
355.27 K, 2880.7 kPa, Fluid (supercritical or subcritical phases)	325.44
355.27 K, 2900.2 kPa, Fluid (supercritical or subcritical phases)	339.29
355.27 K, 2901.3 kPa, Fluid (supercritical or subcritical phases)	340.48
355.27 K, 2902.9 kPa, Fluid (supercritical or subcritical phases)	341.95
355.27 K, 2904 kPa, Fluid (supercritical or subcritical phases)	342.82
355.27 K, 2905.6 kPa, Fluid (supercritical or subcritical phases)	344.36
355.27 K, 2906.7 kPa, Fluid (supercritical or subcritical phases)	345.34
355.27 K, 2908.4 kPa, Fluid (supercritical or subcritical phases)	347.2
355.27 K, 2909.4 kPa, Fluid (supercritical or subcritical phases)	348.62
355.27 K, 2910.6 kPa, Fluid (supercritical or subcritical phases)	349.91
355.27 K, 2911.7 kPa, Fluid (supercritical or subcritical phases)	352.16
355.27 K, 2913.4 kPa, Fluid (supercritical or subcritical phases)	357.67
355.27 K, 2914.7 kPa, Fluid (supercritical or subcritical phases)	388.98
355.27 K, 2915.5 kPa, Fluid (supercritical or subcritical phases)	400.54
357.01 K, 3028.5 kPa, Liquid	789.77
357.01 K, 3030.8 kPa, Liquid	791.93
357.01 K, 3032.9 kPa, Liquid	793.76
357.01 K, 3035 kPa, Liquid	795.08
357.01 K, 3037.1 kPa, Liquid	796.63
357.01 K, 3039.5 kPa, Liquid	798.44
357.01 K, 3041.7 kPa, Liquid	799.96
357.01 K, 3044 kPa, Liquid	801.6
357.01 K, 3046 kPa, Liquid	802.75
357.01 K, 3052 kPa, Liquid	806.74
357.01 K, 3055.7 kPa, Liquid	808.82
357.01 K, 3059.3 kPa, Liquid	810.72
357.01 K, 3062.9 kPa, Liquid	812.63
357.01 K, 3066.3 kPa, Liquid	814.7
357.01 K, 3069.9 kPa, Liquid	816.53
357.01 K, 3073.4 kPa, Liquid	818.11
357.01 K, 3077.1 kPa, Liquid	819.71
357.01 K, 3081.1 kPa, Liquid	821.77
357.01 K, 3084.7 kPa, Liquid	823.28
357.01 K, 3088.4 kPa, Liquid	824.79
357.01 K, 3095.6 kPa, Liquid	828.01
357.01 K, 3097.6 kPa, Liquid	828.88
357.01 K, 3104.3 kPa, Liquid	831.16
357.01 K, 3114.1 kPa, Liquid	834.77
357.01 K, 3123.9 kPa, Liquid	838.1
357.01 K, 3133.7 kPa, Liquid	841.6
357.01 K, 3153.7 kPa, Liquid	847.97
357.01 K, 3163.8 kPa, Liquid	850.53
357.01 K, 3173.8 kPa, Liquid	853.47
357.01 K, 3184.9 kPa, Liquid	856.37
357.01 K, 3195 kPa, Liquid	858.9
357.01 K, 3205.2 kPa, Liquid	861.29
357.01 K, 3230.2 kPa, Liquid	866.99
357.01 K, 3243.1 kPa, Liquid	869.66
357.01 K, 3256.4 kPa, Liquid	872.23
357.01 K, 3269.5 kPa, Liquid	874.91
357.01 K, 3282.6 kPa, Liquid	877.54
357.01 K, 3295.4 kPa, Liquid	879.85
357.01 K, 3307.9 kPa, Liquid	882.22
357.01 K, 3320.3 kPa, Liquid	884.31
357.01 K, 3334 kPa, Liquid	886.47
357.01 K, 3347.2 kPa, Liquid	888.84
357.01 K, 3373.4 kPa, Liquid	892.84
357.01 K, 3387.8 kPa, Liquid	895.05
357.01 K, 3400.4 kPa, Liquid	896.81
357.01 K, 3418.8 kPa, Liquid	899.41
357.01 K, 3438.2 kPa, Liquid	902.07
357.01 K, 3457.5 kPa, Liquid	904.69
357.01 K, 3477.9 kPa, Liquid	907.3
357.01 K, 3514.9 kPa, Liquid	911.85
357.01 K, 3540.5 kPa, Liquid	914.94
357.01 K, 3590.4 kPa, Liquid	920.73
357.01 K, 3614.6 kPa, Liquid	923.49
357.01 K, 3639.2 kPa, Liquid	926.14
357.01 K, 3664.9 kPa, Liquid	928.77
357.01 K, 3689.5 kPa, Liquid	931.28
357.01 K, 3714.8 kPa, Liquid	933.72
357.01 K, 3740.1 kPa, Liquid	936.03
357.01 K, 3764.8 kPa, Liquid	938.27

Liquid
Details	vapor or sublimation pressure [kPa]
356.24 K	2965.3
356.76 K	2998.5

Source: the NIST ThermoML archive (doi:10.1021/je900596d)
